We go through 2 compounds from ChEMBL document CHEMBL4414553, “Imidazopyridine-based selective and multifunctional ligands of biological targets associated with psychiatric and neurodegenerative diseases” (Eur J Med Chem, 2019).

Where only a bound is given, the exact number is not on record here.

What is called inhibition in vivo is the drop in the measured response relative to a control, in per cent. A higher inhibition in vivo goes with a strong effect. As usually defined, the IC50 is the concentration at which inhibition is half-maximal. Low readings indicate greater potency, high ones weaker potency.

For one experiment, the system named is Mus musculus. In words: Inhibition of DYRK1A in mouse at 9 mg/kg relative to control. It is filed as functional.
Experiment [1] deals with Dual specificity tyrosine-phosphorylation-regulated kinase 1A (Homo sapiens, UniProt Q13627). Description: Inhibition of DYRK1A (unknown origin) by TR-FRET assay. A general note: TR-FRET usually uses a lanthanide donor and a delayed reading to cut background.
Another experiment addresses T1, Orexin receptor type 2 (Homo sapiens, UniProt O43614).
T1 sequence (O43614 whole entry): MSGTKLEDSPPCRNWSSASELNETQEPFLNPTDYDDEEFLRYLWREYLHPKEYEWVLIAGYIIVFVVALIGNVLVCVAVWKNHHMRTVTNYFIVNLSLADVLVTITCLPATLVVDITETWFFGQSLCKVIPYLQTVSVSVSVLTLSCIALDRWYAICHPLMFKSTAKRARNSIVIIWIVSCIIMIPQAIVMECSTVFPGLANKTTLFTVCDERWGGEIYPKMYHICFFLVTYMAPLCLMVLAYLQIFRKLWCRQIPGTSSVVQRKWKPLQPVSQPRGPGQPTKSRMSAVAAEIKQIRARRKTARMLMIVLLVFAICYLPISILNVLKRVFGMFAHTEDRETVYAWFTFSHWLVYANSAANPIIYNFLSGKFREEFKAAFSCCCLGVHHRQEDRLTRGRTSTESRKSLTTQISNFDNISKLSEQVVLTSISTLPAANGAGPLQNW
In words: Antagonist activity at human OX2R expressed in CHOK1 cells by Syto62 probe based fluorescence assay. It is filed as cell-based.

Experiment [2] deals with T2, Orexin/Hypocretin receptor type 1 (Homo sapiens, UniProt O43613).
T2 sequence (O43613 whole entry): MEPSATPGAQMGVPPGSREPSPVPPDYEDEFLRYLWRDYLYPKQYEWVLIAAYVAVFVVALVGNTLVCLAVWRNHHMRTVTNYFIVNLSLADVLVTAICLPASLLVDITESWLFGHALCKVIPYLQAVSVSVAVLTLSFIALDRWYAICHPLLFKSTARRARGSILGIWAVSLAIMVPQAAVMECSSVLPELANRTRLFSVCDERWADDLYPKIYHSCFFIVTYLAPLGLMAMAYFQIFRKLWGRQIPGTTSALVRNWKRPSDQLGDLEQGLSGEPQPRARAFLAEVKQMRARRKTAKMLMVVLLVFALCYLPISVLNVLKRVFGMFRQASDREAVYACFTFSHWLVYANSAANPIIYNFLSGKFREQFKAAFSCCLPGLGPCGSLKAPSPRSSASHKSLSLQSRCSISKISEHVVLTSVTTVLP
In words: Antagonist activity at human OX1R expressed in CHOK1 cells by Syto62 probe based fluorescence assay. It is filed as cell-based.

`Cc1nc2ccc(-c3cc(N)nc(N)c3)nc2n1C[C@@H](C)Oc1ccccc1`: in the experiment with Mus musculus, testing at 9 mg/kg gave an inhibition in vivo of 46%. The same compound displayed a half-inhibitory concentration (IC50) in experiment [1] of 8 nM.
For `O=C(c1nccc2[nH]cnc12)N1CCC(F)(F)C(Oc2ccc3ccccc3n2)C1` (centres undefined), the IC50 was above 5870 nM at Orexin receptor type 2 and 89 nM in experiment [2].
